Experimental data reported in patent US20230017045A1, “PYRIDINE AND PYRIMIDINE CARBOXYLATE HERBICIDES AND METHODS OF USE THEREOF” (Dow AgroSciences LLC, priority 2017, published 2023).

These molecules were tested on test plant species (assay: Post-emergent herbicidal activity test (greenhouse, foliar spray, visual growth reduction)). Settings: post-emergence, 336 h, ALOMY: blackgrass (Alopecurus myosuroides), 140 g ai/ha, 14 days after application, read-out: Visual Growth Reduction (%) 14 Days After Application, ALOMY.
Assay type: in vivo
In short: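 Seedlings were raised 7-21 d in a greenhouse under a 15 h photoperiod until the first or second true leaf. Each compound, dissolved in acetone:DMSO 97:3 and diluted into a surfactant-containing spray mixture, was then applied at 187 L/ha. Plants were subirrigated, and growth reduction was scored visually at 14 d.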

Question: With `COC(=O)c1nc(-c2ccc(OCC(F)(F)F)cc2)c(F)cc1Cl` [F163, Methyl 3-chloro-5-fluoro-6-(4-(2,2,2-trifluoroethoxy)phenyl) picolinate] as the molecule, how does the pest or weed control at 140 g/ha read?
Answer: Its pest or weed control at 140 g/ha is 0 to 29%.

Question: With `COC(=O)c1nc(-c2ccc(C(F)(F)F)cc2Cl)ncc1Cl` [F105, Methyl 5-chloro-2-(2-chloro-4-(trifluoromethyl)phenyl)pyrimidine-4-carboxylate] as the molecule, how does the pest or weed control at 140 g/ha read?
Answer: Its pest or weed control at 140 g/ha is 0 to 29%.

Same assay, conditions: post-emergence, 336 h, AMARE: redroot pigweed (Amaranthus retroflexus), 140 g ai/ha, 14 days after application, read-out: Visual Growth Reduction (%) 14 Days After Application, AMARE

Question: With `COC(=O)c1nc(-c2ccc(OCC(F)(F)F)cc2)c(F)cc1Cl` [F163, Methyl 3-chloro-5-fluoro-6-(4-(2,2,2-trifluoroethoxy)phenyl) picolinate] as the molecule, how does the pest or weed control at 140 g/ha read?
Answer: The pest or weed control at 140 g/ha was 30 to 44%.

Question: For `COC(=O)c1nc(-c2ccc(C(F)(F)F)cc2Cl)ncc1Cl` [F105, Methyl 5-chloro-2-(2-chloro-4-(trifluoromethyl)phenyl)pyrimidine-4-carboxylate], which pest or weed control at 140 g/ha is on record?
Answer: Its pest or weed control at 140 g/ha is 95 to 100%.

Same assay, conditions: post-emergence, 336 h, AVEFA: wild oat (Avena fatua), 140 g ai/ha, 14 days after application, read-out: Visual Growth Reduction (%) 14 Days After Application, AVEFA

Question: With `COC(=O)c1nc(-c2ccc(OCC(F)(F)F)cc2)c(F)cc1Cl` [F163, Methyl 3-chloro-5-fluoro-6-(4-(2,2,2-trifluoroethoxy)phenyl) picolinate] as the molecule, how does the pest or weed control at 140 g/ha read?
Answer: The pest or weed control at 140 g/ha was 0 to 29%.

Question: Which pest or weed control at 140 g/ha does the source give for `COC(=O)c1nc(-c2ccc(C(F)(F)F)cc2Cl)ncc1Cl` [F105, Methyl 5-chloro-2-(2-chloro-4-(trifluoromethyl)phenyl)pyrimidine-4-carboxylate] here?
Answer: The pest or weed control at 140 g/ha was 0 to 29%.

Same assay, conditions: post-emergence, 336 h, CHEAL: lambsquarters (Chenopodium album), 140 g ai/ha, 14 days after application, read-out: Visual Growth Reduction (%) 14 Days After Application, CHEAL

Question: `COC(=O)c1nc(-c2ccc(OCC(F)(F)F)cc2)c(F)cc1Cl` [F163, Methyl 3-chloro-5-fluoro-6-(4-(2,2,2-trifluoroethoxy)phenyl) picolinate] was tested. Which pest or weed control at 140 g/ha did it give?
Answer: Its pest or weed control at 140 g/ha is 45 to 59%.

Question: How did the pest or weed control at 140 g/ha turn out when `COC(=O)c1nc(-c2ccc(C(F)(F)F)cc2Cl)ncc1Cl` [F105, Methyl 5-chloro-2-(2-chloro-4-(trifluoromethyl)phenyl)pyrimidine-4-carboxylate] was run?
Answer: The pest or weed control at 140 g/ha was 85 to 94%.

Same assay, conditions: post-emergence, 336 h, CIRAR: canada thistle (Cirsium arvense), 140 g ai/ha, 14 days after application, read-out: Visual Growth Reduction (%) 14 Days After Application, CIRAR

Question: `COC(=O)c1nc(-c2ccc(OCC(F)(F)F)cc2)c(F)cc1Cl` [F163, Methyl 3-chloro-5-fluoro-6-(4-(2,2,2-trifluoroethoxy)phenyl) picolinate] was tested. Which pest or weed control at 140 g/ha did it give?
Answer: The pest or weed control at 140 g/ha was 0 to 29%.

Question: With `COC(=O)c1nc(-c2ccc(C(F)(F)F)cc2Cl)ncc1Cl` [F105, Methyl 5-chloro-2-(2-chloro-4-(trifluoromethyl)phenyl)pyrimidine-4-carboxylate] as the molecule, how does the pest or weed control at 140 g/ha read?
Answer: Its pest or weed control at 140 g/ha is 85 to 94%.

Same assay, conditions: post-emergence, 336 h, CYPES: yellow nutsedge (Cyperus esculentus), 140 g ai/ha, 14 days after application, read-out: Visual Growth Reduction (%) 14 Days After Application, CYPES

Question: `COC(=O)c1nc(-c2ccc(OCC(F)(F)F)cc2)c(F)cc1Cl` [F163, Methyl 3-chloro-5-fluoro-6-(4-(2,2,2-trifluoroethoxy)phenyl) picolinate] was tested. Which pest or weed control at 140 g/ha did it give?
Answer: Its pest or weed control at 140 g/ha is 0 to 29%.

Question: With `COC(=O)c1nc(-c2ccc(C(F)(F)F)cc2Cl)ncc1Cl` [F105, Methyl 5-chloro-2-(2-chloro-4-(trifluoromethyl)phenyl)pyrimidine-4-carboxylate] as the molecule, how does the pest or weed control at 140 g/ha read?
Answer: Its pest or weed control at 140 g/ha is 0 to 29%.

Same assay, conditions: post-emergence, 336 h, DIGSA: crabgrass (Digitaria sanguinalis), 140 g ai/ha, 14 days after application, read-out: Visual Growth Reduction (%) 14 Days After Application, DIGSA

Question: With `COC(=O)c1nc(-c2ccc(OCC(F)(F)F)cc2)c(F)cc1Cl` [F163, Methyl 3-chloro-5-fluoro-6-(4-(2,2,2-trifluoroethoxy)phenyl) picolinate] as the molecule, how does the pest or weed control at 140 g/ha read?
Answer: Its pest or weed control at 140 g/ha is 0 to 29%.

Question: How did the pest or weed control at 140 g/ha turn out when `COC(=O)c1nc(-c2ccc(C(F)(F)F)cc2Cl)ncc1Cl` [F105, Methyl 5-chloro-2-(2-chloro-4-(trifluoromethyl)phenyl)pyrimidine-4-carboxylate] was run?
Answer: The pest or weed control at 140 g/ha was 85 to 94%.

Same assay, conditions: post-emergence, 336 h, ECHCG: barnyardgrass (Echinochloa crus-galli), 140 g ai/ha, 14 days after application, read-out: Visual Growth Reduction (%) 14 Days After Application, ECHCG

Question: `COC(=O)c1nc(-c2ccc(OCC(F)(F)F)cc2)c(F)cc1Cl` [F163, Methyl 3-chloro-5-fluoro-6-(4-(2,2,2-trifluoroethoxy)phenyl) picolinate] was tested. Which pest or weed control at 140 g/ha did it give?
Answer: Its pest or weed control at 140 g/ha is 0 to 29%.

Question: Which pest or weed control at 140 g/ha does the source give for `COC(=O)c1nc(-c2ccc(C(F)(F)F)cc2Cl)ncc1Cl` [F105, Methyl 5-chloro-2-(2-chloro-4-(trifluoromethyl)phenyl)pyrimidine-4-carboxylate] here?
Answer: The pest or weed control at 140 g/ha was 60 to 74%.

Same assay, conditions: post-emergence, 336 h, IPOHE: ivy-leaf morning glory (Ipomoea hederacea), 140 g ai/ha, 14 days after application, read-out: Visual Growth Reduction (%) 14 Days After Application, IPOHE

Question: How did the pest or weed control at 140 g/ha turn out when `COC(=O)c1nc(-c2ccc(OCC(F)(F)F)cc2)c(F)cc1Cl` [F163, Methyl 3-chloro-5-fluoro-6-(4-(2,2,2-trifluoroethoxy)phenyl) picolinate] was run?
Answer: Its pest or weed control at 140 g/ha is 45 to 59%.

Question: How did the pest or weed control at 140 g/ha turn out when `COC(=O)c1nc(-c2ccc(C(F)(F)F)cc2Cl)ncc1Cl` [F105, Methyl 5-chloro-2-(2-chloro-4-(trifluoromethyl)phenyl)pyrimidine-4-carboxylate] was run?
Answer: The pest or weed control at 140 g/ha was 95 to 100%.

Same assay, conditions: post-emergence, 336 h, KCHSC: kochia (Bassia scoparia), 140 g ai/ha, 14 days after application, read-out: Visual Growth Reduction (%) 14 Days After Application, KCHSC

Question: Which pest or weed control at 140 g/ha does the source give for `COC(=O)c1nc(-c2ccc(OCC(F)(F)F)cc2)c(F)cc1Cl` [F163, Methyl 3-chloro-5-fluoro-6-(4-(2,2,2-trifluoroethoxy)phenyl) picolinate] here?
Answer: The pest or weed control at 140 g/ha was 0 to 29%.

Question: With `COC(=O)c1nc(-c2ccc(C(F)(F)F)cc2Cl)ncc1Cl` [F105, Methyl 5-chloro-2-(2-chloro-4-(trifluoromethyl)phenyl)pyrimidine-4-carboxylate] as the molecule, how does the pest or weed control at 140 g/ha read?
Answer: Its pest or weed control at 140 g/ha is 60 to 74%.

Same assay, conditions: post-emergence, 336 h, ORYSA: rice (Oryza sativa), 140 g ai/ha, 14 days after application, read-out: Visual Growth Reduction (%) 14 Days After Application, ORYSA

Question: For `COC(=O)c1nc(-c2ccc(OCC(F)(F)F)cc2)c(F)cc1Cl` [F163, Methyl 3-chloro-5-fluoro-6-(4-(2,2,2-trifluoroethoxy)phenyl) picolinate], which pest or weed control at 140 g/ha is on record?
Answer: Its pest or weed control at 140 g/ha is 0 to 29%.

Question: `COC(=O)c1nc(-c2ccc(C(F)(F)F)cc2Cl)ncc1Cl` [F105, Methyl 5-chloro-2-(2-chloro-4-(trifluoromethyl)phenyl)pyrimidine-4-carboxylate] was tested. Which pest or weed control at 140 g/ha did it give?
Answer: Its pest or weed control at 140 g/ha is 0 to 29%.

Same assay, conditions: post-emergence, 336 h, SETFA: giant foxtail (Setaria faberi), 140 g ai/ha, 14 days after application, read-out: Visual Growth Reduction (%) 14 Days After Application, SETFA

Question: `COC(=O)c1nc(-c2ccc(OCC(F)(F)F)cc2)c(F)cc1Cl` [F163, Methyl 3-chloro-5-fluoro-6-(4-(2,2,2-trifluoroethoxy)phenyl) picolinate] was tested. Which pest or weed control at 140 g/ha did it give?
Answer: The pest or weed control at 140 g/ha was 0 to 29%.

Question: For `COC(=O)c1nc(-c2ccc(C(F)(F)F)cc2Cl)ncc1Cl` [F105, Methyl 5-chloro-2-(2-chloro-4-(trifluoromethyl)phenyl)pyrimidine-4-carboxylate], which pest or weed control at 140 g/ha is on record?
Answer: Its pest or weed control at 140 g/ha is 60 to 74%.

Same assay, conditions: post-emergence, 336 h, SORVU: grain sorghum (Sorghum vulgare), 140 g ai/ha, 14 days after application, read-out: Visual Growth Reduction (%) 14 Days After Application, SORVU

Question: How did the pest or weed control at 140 g/ha turn out when `COC(=O)c1nc(-c2ccc(OCC(F)(F)F)cc2)c(F)cc1Cl` [F163, Methyl 3-chloro-5-fluoro-6-(4-(2,2,2-trifluoroethoxy)phenyl) picolinate] was run?
Answer: The pest or weed control at 140 g/ha was 0 to 29%.

Question: How did the pest or weed control at 140 g/ha turn out when `COC(=O)c1nc(-c2ccc(C(F)(F)F)cc2Cl)ncc1Cl` [F105, Methyl 5-chloro-2-(2-chloro-4-(trifluoromethyl)phenyl)pyrimidine-4-carboxylate] was run?
Answer: The pest or weed control at 140 g/ha was 75 to 84%.

Same assay, conditions: post-emergence, 336 h, STEME: common chickweed (Stellaria media), 140 g ai/ha, 14 days after application, read-out: Visual Growth Reduction (%) 14 Days After Application, STEME

Question: For `COC(=O)c1nc(-c2ccc(OCC(F)(F)F)cc2)c(F)cc1Cl` [F163, Methyl 3-chloro-5-fluoro-6-(4-(2,2,2-trifluoroethoxy)phenyl) picolinate], which pest or weed control at 140 g/ha is on record?
Answer: Its pest or weed control at 140 g/ha is 0 to 29%.

Question: Which pest or weed control at 140 g/ha does the source give for `COC(=O)c1nc(-c2ccc(C(F)(F)F)cc2Cl)ncc1Cl` [F105, Methyl 5-chloro-2-(2-chloro-4-(trifluoromethyl)phenyl)pyrimidine-4-carboxylate] here?
Answer: Its pest or weed control at 140 g/ha is 0 to 29%.

Same assay, conditions: post-emergence, 336 h, TRZAS: wheat, spring (Triticum aestivum), 140 g ai/ha, 14 days after application, read-out: Visual Growth Reduction (%) 14 Days After Application, TRZAS

Question: How did the pest or weed control at 140 g/ha turn out when `COC(=O)c1nc(-c2ccc(OCC(F)(F)F)cc2)c(F)cc1Cl` [F163, Methyl 3-chloro-5-fluoro-6-(4-(2,2,2-trifluoroethoxy)phenyl) picolinate] was run?
Answer: The pest or weed control at 140 g/ha was 0 to 29%.

Question: With `COC(=O)c1nc(-c2ccc(C(F)(F)F)cc2Cl)ncc1Cl` [F105, Methyl 5-chloro-2-(2-chloro-4-(trifluoromethyl)phenyl)pyrimidine-4-carboxylate] as the molecule, how does the pest or weed control at 140 g/ha read?
Answer: Its pest or weed control at 140 g/ha is 0 to 29%.
